Legend:
[1] = Determination of brain exposure in Balb/c nude mice following oral administration; format: in vivo; details: 5 mg/kg oral gavage; for Brain (μM) at 2 h / Plasma (μM) at 2 h / [Brain]/[Plasma] at 2 h: 2 h post dose; for Brain (μM) at 8 h / Plasma (μM) at 8 h / [Brain]/[Plasma] at 8 h: 8 h post dose; for Brain (μM) at 2, 8 h (single value) / Plasma (μM) at 2, 8 h (single value) / Kp: one value given, time point (2 or 8 h) not stated; for Kp: mouse, brain/plasma, read-out: [Brain]/[Plasma] at 2, 8 h (single value)
Protocol: Balb/c nude mice (body weight: 20-30 g; age range: approximately 6-8 weeks) were purchased from a qualified provider and acclimated for 5-7 days. The dosing formulation (dose: 5 mg/kg; concentration: 0.5 mg/mL; vehicle: PEG400:ethanol (v/v 9:1)) was prepared on the day of dosing and administered via oral gavage (dose volume: 10 mL/kg) to the mice (n=3 animals per time point). At the desired time point (2 or 8 h post dose) approximately 0.03 mL of blood sample was collected via venipuncture of peripheral veins into Heparin Na tubes and immediately placed on ice. After gently reverting the tube for approximately 10 seconds, the blood sample was centrifuged at 4,000×g for 5 minutes at 4° C. Supernatant was transferred into a micro-centrifuge tube and kept in a −80° C. freezer. Prior to brain collection, mice were fully exsanguinated via the following procedure: the chest cavity was opened, the ventricle was cut and a gentle iv saline flush (saline flush volume ˜20 mL) was performed with the animal placed head down at a 45 degree angle to facilitate blood removal. Brain samples were collected at the desired time point (2 or 8 h post dose), quick frozen in an ice box, and kept at −75±15° C. All brain samples were weighed and homogenated with buffer (brain weight (g) to PBS volume (mL) ratio of 1:4) before analysis. The actual concentration is the detected value multiplied by the dilution factor. For plasma sample analysis, plasma samples were quantified against a standard curve in plasma of Balb/c nude mice using an LC-MS/MS Method. For brain sample analysis, brain samples were quantified against a standard curve in brain homogenate of Balb/c nude mice using an LC-MS/MS Method. Each standard curve covered at least 6 calibration points including lower limit of quantification (LLOQ).

FASN enzyme = molecular target: T1, FASN enzyme (Homo sapiens, UniProt P49327); test: Enzymatic assay for FASN inhibitors; format: biochemical; details: 40 nM FASN enzyme, 25° C.
T1 construct: incubated with 10 μL of 40 nM FASN enzyme in assay buffer
T1 sequence (P49327 whole entry): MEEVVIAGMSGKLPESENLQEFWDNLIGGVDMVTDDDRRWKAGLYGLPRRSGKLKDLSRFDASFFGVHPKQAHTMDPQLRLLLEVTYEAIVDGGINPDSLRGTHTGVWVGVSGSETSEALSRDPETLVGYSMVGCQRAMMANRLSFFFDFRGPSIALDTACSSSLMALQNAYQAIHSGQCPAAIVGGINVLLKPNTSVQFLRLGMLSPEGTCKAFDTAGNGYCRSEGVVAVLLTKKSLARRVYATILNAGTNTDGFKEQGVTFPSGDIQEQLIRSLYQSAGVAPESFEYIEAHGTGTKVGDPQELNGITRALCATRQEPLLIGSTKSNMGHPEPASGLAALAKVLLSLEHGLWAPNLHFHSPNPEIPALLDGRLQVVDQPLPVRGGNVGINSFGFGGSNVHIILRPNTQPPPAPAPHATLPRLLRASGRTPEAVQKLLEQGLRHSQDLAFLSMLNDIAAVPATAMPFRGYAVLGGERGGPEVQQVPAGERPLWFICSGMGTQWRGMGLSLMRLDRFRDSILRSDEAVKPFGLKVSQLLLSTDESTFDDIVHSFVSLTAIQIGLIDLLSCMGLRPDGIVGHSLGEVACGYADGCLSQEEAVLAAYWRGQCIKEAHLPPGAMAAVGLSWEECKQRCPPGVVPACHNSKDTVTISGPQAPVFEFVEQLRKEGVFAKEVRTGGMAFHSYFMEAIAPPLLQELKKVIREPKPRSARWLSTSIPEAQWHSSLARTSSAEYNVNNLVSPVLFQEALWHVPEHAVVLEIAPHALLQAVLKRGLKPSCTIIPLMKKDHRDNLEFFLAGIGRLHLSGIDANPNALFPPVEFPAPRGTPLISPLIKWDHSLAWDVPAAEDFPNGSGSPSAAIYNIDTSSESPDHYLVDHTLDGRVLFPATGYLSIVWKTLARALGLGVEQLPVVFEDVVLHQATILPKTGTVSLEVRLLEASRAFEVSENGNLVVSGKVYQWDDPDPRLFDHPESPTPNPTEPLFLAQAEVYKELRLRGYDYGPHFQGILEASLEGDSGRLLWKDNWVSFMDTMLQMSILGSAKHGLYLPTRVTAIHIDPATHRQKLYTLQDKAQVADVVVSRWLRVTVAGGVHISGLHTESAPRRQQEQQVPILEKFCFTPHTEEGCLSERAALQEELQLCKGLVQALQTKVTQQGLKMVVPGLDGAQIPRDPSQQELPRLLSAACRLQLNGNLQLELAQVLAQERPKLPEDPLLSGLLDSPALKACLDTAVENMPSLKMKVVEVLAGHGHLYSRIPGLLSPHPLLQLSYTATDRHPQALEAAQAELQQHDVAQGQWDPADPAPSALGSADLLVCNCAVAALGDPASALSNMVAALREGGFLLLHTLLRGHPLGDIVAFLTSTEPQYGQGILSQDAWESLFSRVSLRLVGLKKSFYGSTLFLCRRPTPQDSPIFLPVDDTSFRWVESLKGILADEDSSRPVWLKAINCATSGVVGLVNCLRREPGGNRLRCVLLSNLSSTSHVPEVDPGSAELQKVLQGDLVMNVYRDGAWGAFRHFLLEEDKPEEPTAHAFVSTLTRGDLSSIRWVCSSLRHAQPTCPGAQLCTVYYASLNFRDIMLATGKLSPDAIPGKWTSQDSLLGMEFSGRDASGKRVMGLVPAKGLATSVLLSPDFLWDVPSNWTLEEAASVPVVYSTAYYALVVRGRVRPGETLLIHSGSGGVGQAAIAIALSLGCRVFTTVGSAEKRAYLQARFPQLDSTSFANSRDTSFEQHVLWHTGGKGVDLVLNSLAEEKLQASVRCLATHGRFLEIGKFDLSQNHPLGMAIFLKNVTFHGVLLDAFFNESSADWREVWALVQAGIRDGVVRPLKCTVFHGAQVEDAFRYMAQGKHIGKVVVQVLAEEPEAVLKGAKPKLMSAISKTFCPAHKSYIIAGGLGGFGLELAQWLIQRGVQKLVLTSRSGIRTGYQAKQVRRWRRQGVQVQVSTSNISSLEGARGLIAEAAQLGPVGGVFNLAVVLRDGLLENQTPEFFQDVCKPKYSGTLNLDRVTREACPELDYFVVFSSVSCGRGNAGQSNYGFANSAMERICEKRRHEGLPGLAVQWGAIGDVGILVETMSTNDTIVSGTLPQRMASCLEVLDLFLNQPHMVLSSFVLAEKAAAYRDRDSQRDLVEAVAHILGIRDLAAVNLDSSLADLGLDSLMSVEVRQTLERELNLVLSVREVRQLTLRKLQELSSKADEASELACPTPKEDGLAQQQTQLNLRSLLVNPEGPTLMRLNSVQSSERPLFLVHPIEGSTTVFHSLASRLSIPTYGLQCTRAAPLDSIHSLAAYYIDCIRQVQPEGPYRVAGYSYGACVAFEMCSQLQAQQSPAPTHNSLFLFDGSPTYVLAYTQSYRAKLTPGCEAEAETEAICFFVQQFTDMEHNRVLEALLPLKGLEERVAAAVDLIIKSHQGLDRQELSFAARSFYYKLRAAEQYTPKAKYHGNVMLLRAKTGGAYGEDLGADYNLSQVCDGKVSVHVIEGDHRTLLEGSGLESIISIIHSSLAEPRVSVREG
Protocol: Assays were performed in a 384-well black plate to measure the inhibition of FASN activity by individual compounds disclosed herein. An aliquot of 250 nL of compound was incubated with 10 μL of 40 nM FASN enzyme in assay buffer (50 mM HEPES (pH=7.3), 0.5 mM EDTA, 1 mM ascorbate, 100 mM sodium chloride and 0.04% TritonX-100) in each well at 25° C. for 60 minutes. After the plate was centrifuged briefly, 10 μL of substrate mix (20 μM acetyl-CoA, 60 μM malonyl-CoA, and 100 μM NADPH in assay buffer) was added to each well. The reaction was maintained at 25° C. for 90 minutes. The reaction was then quenched by adding 10 μL of 90 μM 7-diethylamino-3-(4′-maleimidylpheynyl)-4-methylcoumarin in 50/50 ethanol/water solution. The assay plate was incubated at 25° C. for 15 minutes and read on a plate reader with excitation and emission wavelengths at 360 nm and 530 nm, respectively. The IC50 of a given compound was calculated by fitting the dose response curve with a four-parameter logistic equation. Data shown below in Table B, where compounds having an activity designated as “A” provided an IC50<100 nm and compounds having an activity designated as “B” provided an IC50 of 100 nm-1.00 μM.

Question: For `C[C@H]1CN(C(=O)c2ccc(-c3nc4ccc(F)cc4o3)cc2)CCN1C(=O)C1(O)CC1` [Compound 1], which “Brain (μM) at 2 h” value [1] is on record?
Answer: Its value is 1.3 µM.

Question: And the “Plasma (μM) at 2 h” value [1]?
Answer: Its value is 7.3 µM.

Question: And the “[Brain]/[Plasma] at 2 h” value [1]?
Answer: The value was 0.18.

Question: And the “Brain (μM) at 8 h” value [1]?
Answer: Its value is 0.40 µM.

Question: What about the “Plasma (μM) at 8 h” value [1] of the same molecule?
Answer: Its value is 2.1 µM.

Question: And the “[Brain]/[Plasma] at 8 h” value [1]?
Answer: The value was 0.20.

Question: What about the IC50 (FASN enzyme) of the same molecule?
Answer: The IC50 was 100 to 1000 nM.

Question: For `O=C(c1ccc(-c2nc3ccc(F)cc3o2)cc1)N1CCN(C(=O)C2(O)CC2)CC1` [Compound 3], which “Brain (μM) at 2 h” value [1] is on record?
Answer: Its value is 1.8 µM.

Question: What about the “Plasma (μM) at 2 h” value [1] of the same molecule?
Answer: The value was 7.8 µM.

Question: And the “[Brain]/[Plasma] at 2 h” value [1]?
Answer: The value was 0.23.

Question: What about the “Brain (μM) at 8 h” value [1] of the same molecule?
Answer: Its value is 0.89 µM.

Question: And the “Plasma (μM) at 8 h” value [1]?
Answer: Its value is 3.3 µM.

Question: What about the “[Brain]/[Plasma] at 8 h” value [1] of the same molecule?
Answer: Its value is 0.27.

Question: And the IC50 (FASN enzyme)?
Answer: Its IC50 is 100 to 1000 nM.

Question: For `Cn1cnc2cc(-c3ccc(C(=O)N4CCN(C(=O)C5(O)CC5)CC4)c(F)c3)ccc21` [Compound 9], which “Brain (μM) at 2 h” value [1] is on record?
Answer: The value was 0.03 µM.

Question: What about the “Plasma (μM) at 2 h” value [1] of the same molecule?
Answer: Its value is 5.2 µM.

Question: And the “[Brain]/[Plasma] at 2 h” value [1]?
Answer: Its value is 0.006.

Question: And the “Brain (μM) at 8 h” value [1]?
Answer: The value was 0.007 µM.

Question: And the “Plasma (μM) at 8 h” value [1]?
Answer: The value was 0.6 µM.

Question: What about the “[Brain]/[Plasma] at 8 h” value [1] of the same molecule?
Answer: The value was 0.012.

Question: And the IC50 (FASN enzyme)?
Answer: The IC50 was less than 100 nM.

Question: Which results are given for `C[C@@H]1CN(C(=O)c2ccc(-c3nc4ccc(F)cc4o3)cc2)C[C@H](C)N1C(=O)C1(N)CC1` [Compound 8]?
Answer: Brain (μM) at 2, 8 h (single value) [1]: 0.038 µM; Plasma (μM) at 2, 8 h (single value) [1]: 0.309 µM; Kp [1]: 0.12; IC50 (FASN enzyme): 100 to 1000 nM

Question: Which “Brain (μM) at 2, 8 h (single value)” value [1] does the source give for `C[C@H]1CN(C(=O)c2ccc(-c3nc4ccc(F)cc4o3)cc2F)CCN1C(=O)C1(N)CC1` [Compound 7] here?
Answer: The value was 0.013 µM.

Question: And the “Plasma (μM) at 2, 8 h (single value)” value [1]?
Answer: The value was 0.238 µM.

Question: What about the Kp [1] of the same molecule?
Answer: Its Kp is 0.05.

Question: And the IC50 (FASN enzyme)?
Answer: Its IC50 is 100 to 1000 nM.

Question: With `C[C@H]1CN(C(=O)c2ccc(-c3nc4ccc(F)cc4o3)cc2F)CCN1C(=O)C1(O)CC1` [Compound 4] as the molecule, how does the “Brain (μM) at 2 h” value [1] read?
Answer: Its value is 1.6 µM.

Question: And the “Plasma (μM) at 2 h” value [1]?
Answer: The value was 10.6 µM.

Question: And the “[Brain]/[Plasma] at 2 h” value [1]?
Answer: Its value is 0.15.

Question: What about the “Brain (μM) at 8 h” value [1] of the same molecule?
Answer: The value was 0.17 µM.

Question: And the “Plasma (μM) at 8 h” value [1]?
Answer: Its value is 1.1 µM.

Question: And the “[Brain]/[Plasma] at 8 h” value [1]?
Answer: Its value is 0.16.

Question: And the IC50 (FASN enzyme)?
Answer: The IC50 was less than 100 nM.

Question: For `Cn1cnc2cc(-c3ccc(C(=O)N4CCN(C(=O)C5(O)CC5)CC4)cc3)ccc21` [Compound 12], which “Brain (μM) at 2 h” value [1] is on record?
Answer: The value was 0.02 µM.

Question: And the “Plasma (μM) at 2 h” value [1]?
Answer: The value was 1.5 µM.

Question: What about the “[Brain]/[Plasma] at 2 h” value [1] of the same molecule?
Answer: Its value is 0.014.

Question: What about the “Brain (μM) at 8 h” value [1] of the same molecule?
Answer: The value was 0.0 µM.

Question: What about the “Plasma (μM) at 8 h” value [1] of the same molecule?
Answer: Its value is 0.2 µM.

Question: What about the “[Brain]/[Plasma] at 8 h” value [1] of the same molecule?
Answer: Its value is 0.000.

Question: And the IC50 (FASN enzyme)?
Answer: The IC50 was 100 to 1000 nM.

Question: What does the source list for `C[C@H]1CN(C(=O)c2ccc(-c3ccc4c(c3)ncn4C)cc2)CCN1C(=O)C1(O)CC1` [Compound 11]?
Answer: Brain (μM) at 2 h [1]: 0.02 µM; Plasma (μM) at 2 h [1]: 4.4 µM; [Brain]/[Plasma] at 2 h [1]: 0.005; Brain (μM) at 8 h [1]: 0.0 µM; Plasma (μM) at 8 h [1]: 0.6 µM; [Brain]/[Plasma] at 8 h [1]: 0.000; IC50 (FASN enzyme): < 100 nM

Question: Which “Brain (μM) at 2 h” value [1] does the source give for `Cn1cc(-c2ccc(-c3ccc(C(=O)N4CCN(C(=O)C5(O)CC5)CC4)cc3)cc2)cn1` [Compound 13] here?
Answer: The value was 0.28 µM.

Question: And the “Plasma (μM) at 2 h” value [1]?
Answer: Its value is 5.8 µM.

Question: What about the “[Brain]/[Plasma] at 2 h” value [1] of the same molecule?
Answer: Its value is 0.05.

Question: And the “Brain (μM) at 8 h” value [1]?
Answer: The value was 0.12 µM.

Question: And the “Plasma (μM) at 8 h” value [1]?
Answer: The value was 3.1 µM.

Question: And the “[Brain]/[Plasma] at 8 h” value [1]?
Answer: Its value is 0.04.

Question: And the IC50 (FASN enzyme)?
Answer: The IC50 was less than 100 nM.

Question: For `O=C(c1ccc(-c2nc3ccc(F)cc3o2)cc1F)N1CCN(C(=O)[C@H]2CCCO2)CC1` [Compound 6], which “Brain (μM) at 2, 8 h (single value)” value [1] is on record?
Answer: Its value is 0.042 µM.

Question: What about the “Plasma (μM) at 2, 8 h (single value)” value [1] of the same molecule?
Answer: Its value is 0.396 µM.

Question: What about the Kp [1] of the same molecule?
Answer: Its Kp is 0.105.

Question: What about the IC50 (FASN enzyme) of the same molecule?
Answer: Its IC50 is 100 to 1000 nM.

Question: Which “Brain (μM) at 2 h” value [1] does the source give for `O=C(c1ccc(-c2nc3ccc(F)cc3o2)cc1F)N1CCN(C(=O)C2(O)CC2)CC1` [Compound 5] here?
Answer: Its value is 1.4 µM.

Question: And the “Plasma (μM) at 2 h” value [1]?
Answer: Its value is 8.4 µM.

Question: What about the “[Brain]/[Plasma] at 2 h” value [1] of the same molecule?
Answer: Its value is 0.17.

Question: And the “Brain (μM) at 8 h” value [1]?
Answer: The value was 0.62 µM.

Question: And the “Plasma (μM) at 8 h” value [1]?
Answer: The value was 3.3 µM.

Question: What about the “[Brain]/[Plasma] at 8 h” value [1] of the same molecule?
Answer: Its value is 0.19.

Question: What about the IC50 (FASN enzyme) of the same molecule?
Answer: Its IC50 is 100 to 1000 nM.

Question: With `C[C@@H]1CN(C(=O)c2ccc(-c3nc4ccc(F)cc4o3)cc2)C[C@H](C)N1C(=O)C1(O)CC1` [Compound 2] as the molecule, how does the “Brain (μM) at 2 h” value [1] read?
Answer: The value was 0.3 µM.

Question: And the “Plasma (μM) at 2 h” value [1]?
Answer: Its value is 1.4 µM.

Question: And the “[Brain]/[Plasma] at 2 h” value [1]?
Answer: Its value is 0.20.

Question: What about the “Brain (μM) at 8 h” value [1] of the same molecule?
Answer: The value was 0.01 µM.

Question: And the “Plasma (μM) at 8 h” value [1]?
Answer: The value was 0.06 µM.

Question: What about the “[Brain]/[Plasma] at 8 h” value [1] of the same molecule?
Answer: The value was 0.21.

Question: And the IC50 (FASN enzyme)?
Answer: Its IC50 is less than 100 nM.

Question: What does the source list for `C[C@H]1CN(C(=O)c2ccc(-c3ccc4c(c3)ncn4C)cc2F)CCN1C(=O)C1(O)CC1` [Compound 10]?
Answer: Brain (μM) at 2 h [1]: 0.04 µM; Plasma (μM) at 2 h [1]: 4.4 µM; [Brain]/[Plasma] at 2 h [1]: 0.007; Brain (μM) at 8 h [1]: 0.004 µM; Plasma (μM) at 8 h [1]: 1.0 µM; [Brain]/[Plasma] at 8 h [1]: 0.004; IC50 (FASN enzyme): < 100 nM

— patent US20210252011A1, “TREATMENT OF GLIOBLASTOMA WITH FASN INHIBITORS” (FORMA Therapeutics, Inc., priority 2017, published 2021)
